Our source for the Ki, inhibition and IC50 values is ChEMBL document CHEMBL3351528, “Targeting dopamine D3 and serotonin 5-HT1A and 5-HT2A receptors for developing effective antipsychotics: synthesis, biological characterization, and behavioral studies” (J Med Chem, 2014).

For data set [1], the target named is T1, Adrenergic receptor alpha-2 (Homo sapiens, UniProt P08913+P18825+P18089).
T1 sequence (P08913 whole entry): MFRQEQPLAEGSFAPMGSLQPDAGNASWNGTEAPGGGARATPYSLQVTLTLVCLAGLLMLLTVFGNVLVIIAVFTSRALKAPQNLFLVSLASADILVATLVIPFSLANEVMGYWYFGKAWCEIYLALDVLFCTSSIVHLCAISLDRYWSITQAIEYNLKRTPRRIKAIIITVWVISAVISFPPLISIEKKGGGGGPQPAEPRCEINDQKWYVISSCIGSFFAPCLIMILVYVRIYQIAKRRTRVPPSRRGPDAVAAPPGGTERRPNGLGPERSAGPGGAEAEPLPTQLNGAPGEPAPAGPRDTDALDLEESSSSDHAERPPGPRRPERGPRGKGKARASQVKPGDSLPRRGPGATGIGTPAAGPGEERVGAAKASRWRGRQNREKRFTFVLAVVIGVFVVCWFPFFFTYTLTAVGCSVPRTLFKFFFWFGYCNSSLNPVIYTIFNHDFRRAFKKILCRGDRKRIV
T1 sequence (P18825 whole entry): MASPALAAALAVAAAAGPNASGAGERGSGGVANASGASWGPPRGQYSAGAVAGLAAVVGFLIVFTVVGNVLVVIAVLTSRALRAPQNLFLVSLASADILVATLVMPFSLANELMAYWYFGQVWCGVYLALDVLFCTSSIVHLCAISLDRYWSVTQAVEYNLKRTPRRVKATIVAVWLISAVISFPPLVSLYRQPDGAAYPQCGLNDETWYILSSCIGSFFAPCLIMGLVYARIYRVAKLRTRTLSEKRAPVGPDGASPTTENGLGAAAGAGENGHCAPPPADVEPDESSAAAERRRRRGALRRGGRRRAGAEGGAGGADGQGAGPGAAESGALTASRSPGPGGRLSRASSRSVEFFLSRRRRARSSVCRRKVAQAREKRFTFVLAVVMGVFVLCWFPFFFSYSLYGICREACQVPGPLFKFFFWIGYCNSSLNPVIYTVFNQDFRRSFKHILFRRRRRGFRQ
T1 sequence (P18089 whole entry): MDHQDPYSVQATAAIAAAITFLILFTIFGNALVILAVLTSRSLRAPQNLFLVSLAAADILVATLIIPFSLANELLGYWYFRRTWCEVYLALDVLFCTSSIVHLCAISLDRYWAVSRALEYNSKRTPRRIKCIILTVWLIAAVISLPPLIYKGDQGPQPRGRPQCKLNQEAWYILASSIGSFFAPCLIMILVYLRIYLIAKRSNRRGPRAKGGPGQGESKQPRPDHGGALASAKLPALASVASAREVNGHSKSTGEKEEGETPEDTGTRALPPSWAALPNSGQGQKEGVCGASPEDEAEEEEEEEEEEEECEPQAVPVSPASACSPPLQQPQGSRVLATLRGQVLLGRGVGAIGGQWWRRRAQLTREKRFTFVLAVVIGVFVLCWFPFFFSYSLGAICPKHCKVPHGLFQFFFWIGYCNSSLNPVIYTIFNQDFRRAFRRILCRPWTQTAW
The data set can be described thus: Binding affinity to alpha2 adrenoreceptor (unknown origin). The class given is protein assay.

The target in data set [2] is T2, hERG (KCNH2) (Homo sapiens, UniProt Q12809). The data set can be described thus: Inhibition of human ERG at 3 uM by whole cell based electrophysiology assay.
Data set [3] concerns the target T2, hERG (KCNH2). Description: Inhibition of human ERG at 1 uM by whole cell based electrophysiology assay.
For data set [4], the target named is 5-hydroxytryptamine receptor 2A (Rattus norvegicus, UniProt P14842). The data set can be described thus: Antagonist activity at 5HT2A receptor in rat aortic rings assessed as reduction in 5-HT-induced contraction.
Data set [5] addresses T3, Adrenergic receptor alpha-1 (Homo sapiens, UniProt P35348+P25100+P35368).
T3 sequence (P35348 whole entry): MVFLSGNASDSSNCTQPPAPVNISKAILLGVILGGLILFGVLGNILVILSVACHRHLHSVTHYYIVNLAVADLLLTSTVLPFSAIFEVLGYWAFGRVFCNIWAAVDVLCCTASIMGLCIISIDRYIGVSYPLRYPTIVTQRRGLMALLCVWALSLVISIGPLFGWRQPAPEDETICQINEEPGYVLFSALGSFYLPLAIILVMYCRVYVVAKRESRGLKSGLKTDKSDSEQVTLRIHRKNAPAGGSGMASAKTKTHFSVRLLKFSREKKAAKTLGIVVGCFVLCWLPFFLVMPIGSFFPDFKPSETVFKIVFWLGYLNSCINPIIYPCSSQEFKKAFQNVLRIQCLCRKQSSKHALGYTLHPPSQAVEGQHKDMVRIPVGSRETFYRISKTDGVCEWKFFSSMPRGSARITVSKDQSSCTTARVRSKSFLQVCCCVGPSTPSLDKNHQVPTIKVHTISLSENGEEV
T3 sequence (P25100 whole entry): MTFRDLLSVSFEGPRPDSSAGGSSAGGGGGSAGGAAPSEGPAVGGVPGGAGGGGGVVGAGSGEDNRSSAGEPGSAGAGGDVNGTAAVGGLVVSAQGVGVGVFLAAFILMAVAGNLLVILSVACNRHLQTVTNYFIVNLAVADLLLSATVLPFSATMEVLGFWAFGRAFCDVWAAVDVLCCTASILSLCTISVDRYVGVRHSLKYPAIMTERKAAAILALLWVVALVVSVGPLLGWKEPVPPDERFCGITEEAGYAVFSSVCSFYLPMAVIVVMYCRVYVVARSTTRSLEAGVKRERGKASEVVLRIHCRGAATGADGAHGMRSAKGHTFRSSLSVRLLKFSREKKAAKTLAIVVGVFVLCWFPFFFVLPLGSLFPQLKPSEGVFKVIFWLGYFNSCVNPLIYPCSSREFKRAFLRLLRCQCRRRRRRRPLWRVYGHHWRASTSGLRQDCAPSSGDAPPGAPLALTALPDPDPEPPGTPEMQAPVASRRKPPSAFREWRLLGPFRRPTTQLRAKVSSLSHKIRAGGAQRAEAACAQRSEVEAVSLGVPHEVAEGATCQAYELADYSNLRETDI
T3 sequence (P35368 whole entry): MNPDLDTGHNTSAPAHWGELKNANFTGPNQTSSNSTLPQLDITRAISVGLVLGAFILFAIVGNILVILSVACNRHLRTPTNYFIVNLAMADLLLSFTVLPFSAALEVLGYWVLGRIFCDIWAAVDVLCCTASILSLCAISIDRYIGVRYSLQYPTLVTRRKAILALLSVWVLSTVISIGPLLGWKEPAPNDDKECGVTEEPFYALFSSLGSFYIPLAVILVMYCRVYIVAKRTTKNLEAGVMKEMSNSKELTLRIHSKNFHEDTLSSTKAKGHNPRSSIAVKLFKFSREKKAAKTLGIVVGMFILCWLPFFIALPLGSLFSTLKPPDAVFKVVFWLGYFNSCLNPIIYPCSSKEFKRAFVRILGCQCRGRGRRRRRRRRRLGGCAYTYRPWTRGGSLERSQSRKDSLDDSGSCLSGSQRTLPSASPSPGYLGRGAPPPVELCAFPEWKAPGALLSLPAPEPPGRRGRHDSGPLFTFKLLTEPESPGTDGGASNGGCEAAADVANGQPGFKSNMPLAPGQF
The data set can be described thus: Binding affinity to alpha1 adrenoreceptor (unknown origin).

The next data set deals with Histamine H1 receptor (Homo sapiens, UniProt P35367). Description: Binding affinity to human histamine H1 receptor.
Chain of Histamine H1 receptor (P35367 whole entry): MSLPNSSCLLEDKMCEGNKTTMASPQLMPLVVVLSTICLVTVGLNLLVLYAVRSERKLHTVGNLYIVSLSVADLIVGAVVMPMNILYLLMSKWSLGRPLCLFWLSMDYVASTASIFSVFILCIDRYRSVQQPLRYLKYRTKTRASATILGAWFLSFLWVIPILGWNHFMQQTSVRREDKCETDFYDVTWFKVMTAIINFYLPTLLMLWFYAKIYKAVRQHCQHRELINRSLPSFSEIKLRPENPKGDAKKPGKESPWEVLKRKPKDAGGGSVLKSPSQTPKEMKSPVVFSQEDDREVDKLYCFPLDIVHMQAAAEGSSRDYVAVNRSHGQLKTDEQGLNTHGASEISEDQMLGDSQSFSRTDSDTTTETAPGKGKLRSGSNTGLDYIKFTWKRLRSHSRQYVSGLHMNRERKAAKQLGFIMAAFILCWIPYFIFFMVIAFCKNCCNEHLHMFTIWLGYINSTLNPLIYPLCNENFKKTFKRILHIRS

T2 sequence (Q12809 whole entry): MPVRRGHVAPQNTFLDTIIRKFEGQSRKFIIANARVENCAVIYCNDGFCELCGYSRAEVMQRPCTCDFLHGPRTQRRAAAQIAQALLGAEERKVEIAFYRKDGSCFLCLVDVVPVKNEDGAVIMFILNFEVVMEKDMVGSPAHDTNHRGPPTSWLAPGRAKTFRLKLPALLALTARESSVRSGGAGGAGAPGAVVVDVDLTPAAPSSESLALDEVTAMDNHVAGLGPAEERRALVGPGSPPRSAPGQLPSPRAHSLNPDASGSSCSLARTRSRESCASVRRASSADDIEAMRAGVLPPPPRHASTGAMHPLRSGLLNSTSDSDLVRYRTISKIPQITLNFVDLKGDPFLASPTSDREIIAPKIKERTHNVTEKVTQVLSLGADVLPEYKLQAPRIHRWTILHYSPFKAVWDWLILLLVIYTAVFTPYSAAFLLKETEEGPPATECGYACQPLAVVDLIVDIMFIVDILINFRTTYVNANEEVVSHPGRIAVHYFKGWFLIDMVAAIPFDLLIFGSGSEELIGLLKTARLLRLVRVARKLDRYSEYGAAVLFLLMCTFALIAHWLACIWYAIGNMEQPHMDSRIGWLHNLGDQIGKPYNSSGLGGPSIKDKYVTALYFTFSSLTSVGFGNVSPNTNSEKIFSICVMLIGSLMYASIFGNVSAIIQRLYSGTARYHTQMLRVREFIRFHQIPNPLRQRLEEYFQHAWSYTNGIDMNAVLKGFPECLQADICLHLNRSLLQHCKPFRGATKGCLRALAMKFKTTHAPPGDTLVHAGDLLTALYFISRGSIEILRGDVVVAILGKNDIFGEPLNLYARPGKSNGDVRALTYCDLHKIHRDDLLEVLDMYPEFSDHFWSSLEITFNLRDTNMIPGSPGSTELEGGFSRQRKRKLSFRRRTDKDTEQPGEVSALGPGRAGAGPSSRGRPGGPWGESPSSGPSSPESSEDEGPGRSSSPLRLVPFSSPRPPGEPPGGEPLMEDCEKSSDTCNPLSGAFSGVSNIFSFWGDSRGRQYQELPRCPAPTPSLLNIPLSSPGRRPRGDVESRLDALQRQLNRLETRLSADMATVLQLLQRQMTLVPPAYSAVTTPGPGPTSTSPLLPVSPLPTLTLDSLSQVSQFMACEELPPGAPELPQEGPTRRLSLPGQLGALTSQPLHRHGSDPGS
Chain of 5-hydroxytryptamine receptor 2A (P14842 whole entry): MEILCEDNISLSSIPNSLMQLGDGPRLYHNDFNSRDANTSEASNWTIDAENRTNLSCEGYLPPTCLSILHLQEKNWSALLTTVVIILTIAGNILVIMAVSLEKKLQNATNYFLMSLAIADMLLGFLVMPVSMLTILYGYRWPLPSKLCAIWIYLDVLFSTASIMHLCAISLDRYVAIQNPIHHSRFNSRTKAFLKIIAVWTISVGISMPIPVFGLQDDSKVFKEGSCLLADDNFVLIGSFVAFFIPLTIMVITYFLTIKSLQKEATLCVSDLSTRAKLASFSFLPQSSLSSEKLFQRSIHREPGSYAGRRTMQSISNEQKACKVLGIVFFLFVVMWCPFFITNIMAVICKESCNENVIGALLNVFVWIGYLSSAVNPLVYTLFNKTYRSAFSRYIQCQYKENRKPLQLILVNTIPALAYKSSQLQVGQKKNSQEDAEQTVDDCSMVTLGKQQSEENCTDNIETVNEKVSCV

Turning to `O=C(NCCCCN1CCN(c2ccccc2)CC1)c1ccc2ncccc2c1`, the values for the Ki (in data set [1]; in data set [5]; on Histamine H1 receptor) were 150 nM, 50 nM and 110 nM, respectively. Also, the inhibition (commonly the percentage by which the read-out fell short of the control) at 3 µM on hERG (KCNH2) [2] amounted to 24%. This molecule gave an inhibition at 1 µM against hERG (KCNH2) [3] of 10%. In data set [4], the IC50 (in general, the midpoint of a concentration-inhibition curve) turned out to be 2600 nM.
